From US20060045953A1 (priority 2004, published 2006)
Like-named read-outs stand apart in the source and are kept apart here.

Experiments:
[1] = biological target: T1, hT1R2/hT1R3 sweet receptor (Homo sapiens, UniProt Q7RTX0+Q8TE23); assay: In vitro hT1R2/hT1R3 sweet taste receptor activation assay (FLIPR, dose response); format: cell-based
T1 construct: expressed in transfected cells; host or cells: HEK293 derivative stably expressing Gα15, clone S-9
T1 sequence (Q8TE23 20-839): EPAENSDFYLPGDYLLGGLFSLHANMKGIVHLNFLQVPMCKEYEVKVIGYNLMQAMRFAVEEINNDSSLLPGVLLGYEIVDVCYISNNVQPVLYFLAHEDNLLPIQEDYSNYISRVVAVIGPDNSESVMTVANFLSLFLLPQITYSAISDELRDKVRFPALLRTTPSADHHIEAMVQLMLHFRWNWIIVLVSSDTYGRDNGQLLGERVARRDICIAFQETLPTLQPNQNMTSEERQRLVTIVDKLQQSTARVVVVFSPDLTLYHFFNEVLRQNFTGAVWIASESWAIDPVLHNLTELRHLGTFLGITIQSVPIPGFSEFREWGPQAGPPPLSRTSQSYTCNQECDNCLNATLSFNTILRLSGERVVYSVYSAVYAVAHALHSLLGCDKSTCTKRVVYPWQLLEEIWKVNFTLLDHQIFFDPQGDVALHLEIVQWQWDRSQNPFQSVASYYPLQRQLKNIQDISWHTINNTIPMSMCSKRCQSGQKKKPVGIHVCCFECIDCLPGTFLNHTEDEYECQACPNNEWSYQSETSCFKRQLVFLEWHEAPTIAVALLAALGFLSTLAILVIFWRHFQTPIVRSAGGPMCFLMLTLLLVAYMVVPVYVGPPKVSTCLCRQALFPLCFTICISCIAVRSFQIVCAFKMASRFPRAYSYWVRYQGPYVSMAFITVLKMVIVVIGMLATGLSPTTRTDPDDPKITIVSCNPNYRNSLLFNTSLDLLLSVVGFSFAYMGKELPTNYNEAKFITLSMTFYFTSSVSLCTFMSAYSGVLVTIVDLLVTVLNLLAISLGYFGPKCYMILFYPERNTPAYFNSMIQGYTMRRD
T1 sequence (Q7RTX0 21-852): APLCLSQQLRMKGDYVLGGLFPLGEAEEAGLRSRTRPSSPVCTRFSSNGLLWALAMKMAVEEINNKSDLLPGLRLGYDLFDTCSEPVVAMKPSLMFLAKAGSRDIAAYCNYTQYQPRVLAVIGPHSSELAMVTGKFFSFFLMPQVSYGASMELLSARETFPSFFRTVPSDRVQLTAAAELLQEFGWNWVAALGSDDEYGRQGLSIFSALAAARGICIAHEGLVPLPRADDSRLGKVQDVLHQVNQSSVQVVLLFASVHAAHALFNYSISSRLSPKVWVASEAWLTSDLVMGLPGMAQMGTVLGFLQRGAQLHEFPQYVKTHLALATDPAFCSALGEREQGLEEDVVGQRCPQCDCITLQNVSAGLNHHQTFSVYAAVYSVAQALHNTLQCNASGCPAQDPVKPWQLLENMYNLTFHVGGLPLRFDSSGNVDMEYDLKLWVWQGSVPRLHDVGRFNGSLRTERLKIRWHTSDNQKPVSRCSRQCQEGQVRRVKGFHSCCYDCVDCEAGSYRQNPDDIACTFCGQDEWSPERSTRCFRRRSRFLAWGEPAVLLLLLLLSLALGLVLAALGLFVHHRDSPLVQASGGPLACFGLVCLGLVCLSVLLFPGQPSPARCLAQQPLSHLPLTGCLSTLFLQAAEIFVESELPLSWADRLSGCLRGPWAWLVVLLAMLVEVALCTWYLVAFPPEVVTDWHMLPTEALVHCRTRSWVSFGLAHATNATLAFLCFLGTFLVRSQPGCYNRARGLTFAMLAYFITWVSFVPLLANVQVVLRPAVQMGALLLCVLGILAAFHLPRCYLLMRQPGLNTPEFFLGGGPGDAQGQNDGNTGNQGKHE
Outline: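 Dose-response at 10 concentrations (60 nM–30 µM, duplicates) measured as Fluo-3AM calcium fluorescence on FLIPR in hT1R2/hT1R3 S-9 cells, in D-PBS at room temperature. Responses scaled to 400 mM D-fructose. EC50s from regression with all curve parameters floating.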

[2] = biological target: T2, hT1R1/hT1R3 umami receptor (Homo sapiens, UniProt Q7RTX0+Q7RTX1); assay: In vitro hT1R1/hT1R3 umami taste receptor activation assay (FLIPR, dose response); format: cell-based
T2 construct: expressed in transfected cells; host or cells: HEK293 derivative stably expressing Gα15, clone I-17, expression induced with mifepristone
T2 sequence (Q7RTX1 21-841): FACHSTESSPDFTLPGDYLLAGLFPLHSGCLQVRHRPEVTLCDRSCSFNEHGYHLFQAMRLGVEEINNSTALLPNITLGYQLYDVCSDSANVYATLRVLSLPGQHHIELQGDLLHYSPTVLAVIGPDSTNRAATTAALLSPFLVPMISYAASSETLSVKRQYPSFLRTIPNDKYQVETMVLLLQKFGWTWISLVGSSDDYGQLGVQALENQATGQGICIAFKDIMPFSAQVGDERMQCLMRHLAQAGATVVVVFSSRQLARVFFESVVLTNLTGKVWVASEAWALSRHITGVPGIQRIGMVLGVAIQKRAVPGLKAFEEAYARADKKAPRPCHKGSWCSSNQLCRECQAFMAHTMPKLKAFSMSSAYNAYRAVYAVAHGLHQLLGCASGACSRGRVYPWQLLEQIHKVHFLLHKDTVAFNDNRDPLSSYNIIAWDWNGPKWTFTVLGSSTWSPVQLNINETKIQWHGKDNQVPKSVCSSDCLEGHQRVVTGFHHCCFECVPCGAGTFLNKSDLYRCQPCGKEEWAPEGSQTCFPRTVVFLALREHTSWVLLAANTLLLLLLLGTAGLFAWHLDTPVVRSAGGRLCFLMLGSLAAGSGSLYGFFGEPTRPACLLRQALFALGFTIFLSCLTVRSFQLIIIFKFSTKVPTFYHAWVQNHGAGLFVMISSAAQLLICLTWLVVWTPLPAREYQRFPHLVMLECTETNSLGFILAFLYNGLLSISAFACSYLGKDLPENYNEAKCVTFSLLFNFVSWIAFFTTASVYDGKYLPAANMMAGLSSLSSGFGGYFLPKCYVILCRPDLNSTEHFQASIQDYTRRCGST
T2 sequence (Q7RTX0 21-852): T1 sequence (Q7RTX0 21-852)

[3] = read-out: EC50 for activation of a hT1R1/hT1R3 umami receptor expressed in an HEK293 cell line
[4] = Table E, Sweet Enhancer Amides, read-out: Sweet EC50

EC50 ([1]; read-out: EC50 for activation of a hT1R2/hT1R3 sweet receptor expressed in an HEK293 cell line)	melting point	EC50 [2, 3]	EC50 [1, 4]	EC50 ([2]; Table E, read-out: Umami EC50)	SMILES
1170 nM	148 to 151 °C				O=C(N[C@@H]1CCCc2c(O)cccc21)c1cccc(Cl)c1O (stereo in doubt) [Example 180, 3-Chloro-2-hydroxy-N-(5-hydroxy-1,2,3,4-tetrahydronaphthalen-1-yl)benzamide]
	107 to 108 °C	680 nM			CCCC(CCC)NC(=O)c1ccc2oc(CC)nc2c1 [Example 41, 2-Ethyl-benzooxazole-5-carboxylic acid (1-propyl-butyl)-amide]
	137 to 138 °C	690 nM			CCCC(CCC)NC(=O)c1ccc2oc(OC)nc2c1 [Example 42, 2-Methoxy-benzooxazole-5-carboxylic acid (1-propyl-butyl)-amide]
	128 to 129 °C	5000 nM			CCCC(CCC)NC(=O)c1ccc2oc(OCC)nc2c1 [Example 43, 2-Ethoxy-benzooxazole-5-carboxylic acid (1-propyl-butyl)-amide]
	113 to 114 °C	3100 nM			CCCC(CCC)NC(=O)c1ccc2oc(SC)nc2c1 [Example 44, N-(heptan-4-yl)-2-(methylthio)benzo[d]oxazole-5-carboxamide]
	108.5 to 109 °C	230 nM			CCCC(CCC)NC(=O)c1ccc2oc(CCl)nc2c1 [Example 45, Chloromethyl benzooxazol-5-carboxylic acid (1-propyl-butyl)amide]
	137 to 137.5 °C	450 nM			CCCC(CCC)NC(=O)c1ccc2nc(CCl)oc2c1 [Example 47, 2-Chloromethyl-benzooxazole-6-carboxylic acid (1-propyl-butyl)-amide]
	129 to 131 °C	120 nM			CCCC(CCC)NC(=O)c1ccc(SC)c(C)c1 [Example 51, N-(heptan-4-yl)-3-methyl-4-(methylthio)benzamide]
	118 to 119 °C	340 nM			COc1ccccc1CNC(=O)C(=O)NCCc1ccccn1 [Example 122, N-(2-Methoxy-benzyl)-N′-(2-pyridin-2-yl-ethyl)-oxalamide]
	122 to 124 °C	370 nM			Cc1ccsc1CNC(=O)C(=O)NCCc1ccccn1 [Example 124, N-(3-Methyl-thiophen-2-ylmethyl)-N′-(2-pyridin-2-yl-ethyl)-oxalamide]
	152 to 154 °C	410 nM			Cc1ccc(CNC(=O)C(=O)NCCc2ccccn2)cc1 [Example 125, N-(4-methyl-benzyl)-N′-(2-pyridin-2-yl-ethyl)-oxalamide]
	133 to 134 °C	110 nM			COc1ccc(CNC(=O)C(=O)NCCc2ccccn2)c(C)c1 [Example 126, N-(2-Methyl-4-methoxybenzyl)-N′-(2-pyridin-2-yl-ethyl)-oxalamide]
	112 to 115 °C	1010 nM			Cc1cc(CNC(=O)C(=O)NCCc2ccccn2)c(C)o1 [Example 130, N-(2,5-Dimethyl-furan-3-ylmethyl)-N′-(2-pyridin-2-yl-ethyl)-oxalamide]
	147 to 149 °C	2300 nM			Cc1ccc(CNC(=O)C(=O)NCCc2ccccn2)n1C [Example 131, N-(1,5-Dimethyl-1H-pyrrol-2-ylmethyl)-N′-(2-pyridin-2-yl-ethyl)-oxalamide]
	148 to 149 °C	70 nM			Cc1ccc(CNC(=O)C(=O)NCCc2ccccn2)c(C)c1 [Example 133, N-(2,4-dimethylbenzyl)-N′-(2-(pyridin-2-yl)ethyl)oxalamide]
	117 to 118 °C	100 nM			CCOc1ccc(CNC(=O)C(=O)NCCc2ccccn2)c(OC)c1 [Example 134, N-(4-ethoxy-2-methoxybenzyl)-N′-(2-(pyridin-2-yl)ethyl)oxalamide]
	145 to 147 °C	1040 nM			COc1ccc(CNC(=O)C(=O)NCCc2ccccn2)cc1C [Example 135]
	144 to 145 °C	1640 nM			COc1ccc(CNC(=O)C(=O)NCCc2cc(C)ccn2)c(OC)c1 [Example 154, N-(2,4-Dimethoxybenzyl)-N′-(2-(4-methylpyridin-2-yl)ethyl)oxalamide]
	124 to 125 °C	70 nM			COc1ccc(CNC(=O)C(=O)NCCc2ccc(C)cn2)c(OC)c1 [Example 155, N-(2,4-Dimethoxybenzyl)-N′-(2-(5-methylpyridin-2-yl)ethyl)oxalamide]
	146 to 147 °C	4870 nM			COc1ccc(CNC(=O)C(=O)NCCc2cccs2)c(OC)c1 [Example 156, N-(2,4-Dimethoxybenzyl)-N′-(2-(thiophen-2-yl)ethyl)oxalamide]
	135 to 136 °C	370 nM			CCCC(CCC)NC(=O)Nc1ccccc1Cl [Example 158]
	172 to 173 °C	980 nM			CCCC(CCC)NC(=O)Nc1ccc(OC)cc1OC [Example 159, 1-(2,4-dimethoxyphenyl)-3-(heptan-4-yl)urea]
	163 to 164 °C	4100 nM			CCOc1ccc(NC(=O)NCCc2ccccn2)cc1 [Example 160, 1-(4-ethoxyphenyl)-3-(2-(pyridine-2-yl)ethyl)urea]
	72 to 73 °C	980 nM			CC(C)c1ccc(NC(=O)NCCc2ccccn2)cc1 [Example 161, 1-(4-isopropylphenyl)-3-(2-(pyridine-2-yl)ethyl)urea]
			3030 nM	330 nM	CCCC(CCC)NC(=O)c1cccc(C(F)(F)F)c1 [Example E68, N-(heptan-4-yl)-3-(trifluoromethyl)benzamide]
			4240 nM	8510 nM	CC1CCCCC1NC(=O)c1nsc(Cl)c1Cl (stereo not shown) [Example E78, 4,5-Dichloro-isothiazole-3-carboxylic acid (2-methyl-cyclohexyl)-amide]
